Like-named read-outs stand apart in the source and are kept apart here.
Key:
D2 receptor = D2 receptor (Homo sapiens (Human), UniProt P14416); assay: Radioligand binding assay ([3H]-spiperone) on membranes of HEK293 EBNA cells expressing human D2 receptor; conditions: human receptor in HEK293 EBNA cells; 0.7 nM [3H]-spiperone
Procedure: (§1) HEK293 EBNA cells were transiently transfected with expression plasmids encoding for the human D2 or D3 or for the human 5-HT2A receptor, respectively. The cells were harvested 48 h post-transfection, washed three times with cold PBS and stored at −80° C. prior to use. The pellet was suspended in cold 50 mM Tris-HCl buffer containing 10 mM EDTA (pH 7.4) and was homogenized with a Polytron (Kinematica AG, Basel, Switzerland) for 20-30 sec at 12.000 rpm. After centrifugation at 48.000×g for 30 min at 4° C., the pellet was resuspended in cold 10 mM Tris-HCl buffer containing 0.1 mM EDTA (pH 7.4), homogenized, and centrifuged as above. This pellet was further resuspended in a smaller volume of ice cold 10 mM Tris-HCl buffer containing 0.1 mM EDTA (pH 7.4) and homogenized with a Polytron for 20-30 sec at 12.000 rpm. The protein content of this homogenate was determined with the Bio-Rad (Bradford) Protein Assay (Biorad Laboratories GmbH, München, Germany) according to the instructions of the manufacturer using gamma globulin as the standard. This homogenate was stored at −80° C. in aliquots and thawed immediately prior to use.
(§2) Aliquots of membrane preparations were thawed at RT, resuspended in assay buffer (D2, D3: 50 mM Tris-HCl, 120 mM NaCl, 5 mM MgCl2, 1 mM EDTA, 5 mM KCl, 1.5 mM CaCl2, pH=7.4; 5-HT2A: 50 mM Tris-HCl, 10 mM MgCl2, 1 mM EGTA, pH=7.4), homogenized with a Polytron for 20-30 sec at 12.000 rpm and adjusted to a final concentration of approximately 7.5 μg protein/well (D2, D3) and 15 μg protein/well (5-HT2A), respectively.
(§3) The nonspecific binding was determined with equally composed reaction mixtures in the presence of 10 μM unlabelled spiperone. Per well 45 μl of Microscint 40 (Perkin Elmer, Schwerzenbach, Switzerland) was added, plates for sealed, shaken for 20 min and counted for 3 min on a Topcount Microplate Scintillation Counter (Can berra Packard SA, Ziirich, Switzerland) with quenching correction.
(§4) The CPM value for each duplicate of a concentration of competing compound was averaged (y1), then the % specific binding was calculated according to the equation (((y1−non-specific)/(total binding−non-specific))×100). Graphs were plotted with the % specific binding using XLfit, a curve fitting program that iteratively plots the data using Levenberg-Marquardt algorithm. The single site competition analysis equation used was y=A+((B−A)/(1+((x/C)D))), where y is the % specific binding, A is the minimum y, B is the maximum y, C is the IC50, x is the log 10 of the concentration of the competing compound and D is the slope of the curve (the Hill Coefficient). […] The affinity constant (K) was calculated using the Cheng-Prusoff equation Ki=(IC50/1+([L]/Kd), where [L] is the concentration of radioligand and Kd is the dissociation constant of the radioligand at the receptor as determined by the saturation isotherm.

D3 receptor = D3 receptor (Homo sapiens (Human), UniProt P35462); assay: Radioligand binding assay ([3H]-spiperone) on membranes of HEK293 EBNA cells expressing human D3 receptor; conditions: read-out: D3 Ki; human receptor in HEK293 EBNA cells; 0.5 nM [3H]-spiperone
Sequence of D3 receptor (P35462 whole entry): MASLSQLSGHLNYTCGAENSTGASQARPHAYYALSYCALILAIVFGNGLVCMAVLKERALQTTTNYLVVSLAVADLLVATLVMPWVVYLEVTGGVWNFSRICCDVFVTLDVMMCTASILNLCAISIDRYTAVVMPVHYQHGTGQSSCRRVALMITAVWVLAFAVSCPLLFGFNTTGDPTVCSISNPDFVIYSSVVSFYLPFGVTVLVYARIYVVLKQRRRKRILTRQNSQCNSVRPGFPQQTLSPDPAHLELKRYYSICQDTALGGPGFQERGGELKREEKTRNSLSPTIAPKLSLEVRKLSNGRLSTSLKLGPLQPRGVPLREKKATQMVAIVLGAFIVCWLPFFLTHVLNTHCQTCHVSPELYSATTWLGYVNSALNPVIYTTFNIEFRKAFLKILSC
Procedure: as §1, §2, §3, §4

5-HT2A receptor = 5-HT2A receptor (Homo sapiens (Human), UniProt P28223); assay: Radioligand binding assay ([3H]-ketanserin) on membranes of HEK293 EBNA cells expressing human 5-HT2A receptor; conditions: read-out: 5HT2A Ki
[1] = human receptor in HEK293 EBNA cells, 1.1 nM [3H]-ketanserin

Sequence of D2 receptor (P14416 whole entry): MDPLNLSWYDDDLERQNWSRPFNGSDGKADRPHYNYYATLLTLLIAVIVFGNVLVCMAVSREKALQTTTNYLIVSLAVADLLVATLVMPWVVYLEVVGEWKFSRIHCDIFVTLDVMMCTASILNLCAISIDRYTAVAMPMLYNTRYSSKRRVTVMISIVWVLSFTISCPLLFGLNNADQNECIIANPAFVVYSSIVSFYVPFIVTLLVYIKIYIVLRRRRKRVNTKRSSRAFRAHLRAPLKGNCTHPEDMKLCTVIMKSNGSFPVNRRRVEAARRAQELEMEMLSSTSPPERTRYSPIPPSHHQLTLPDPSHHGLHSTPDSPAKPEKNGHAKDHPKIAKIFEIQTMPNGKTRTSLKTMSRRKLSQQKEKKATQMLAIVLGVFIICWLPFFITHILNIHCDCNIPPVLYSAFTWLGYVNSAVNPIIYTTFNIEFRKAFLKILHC

For `CC(C)C(=O)N[C@H]1CC[C@H](CCN2CCC(c3cccc4c3OCO4)CC2)CC1` [Example 23, Trans-N-{4-[2-(4-Benzo[1,3]dioxol-4-yl-piperidin-1-yl)-ethyl]-cyclohexyl}-isobutyramide], the Ki (D2 receptor) was 0.397 µM, the Ki (D3 receptor) was 0.00826 µM and the Ki (5-HT2A receptor) was 0.017 µM.

`CC(C)CC(=O)N[C@H]1CC[C@H](CCN2CCC(c3cccc4c3OCO4)CC2)CC1` [Example 24, Trans-N-{4-[2-(4-Benzo[1,3]dioxol-4-yl-piperidin-1-yl)-ethyl]-cyclohexyl}-3-methyl-butyramide] was tested, and the Ki (D2 receptor) was 0.239 µM, the Ki (D3 receptor) was 0.005 µM and the Ki (5-HT2A receptor; [1]) was 0.0285 µM.

For `CCCC(=O)N[C@H]1CC[C@H](CCN2CCC(c3cccc4c3OCO4)CC2)CC1` [Example 25, Trans-N-{4-[2-(4-Benzo[1,3]dioxol-4-yl-piperidin-1-yl)-ethyl]-cyclohexyl}-butyramide], the Ki (D2 receptor) was 0.277 µM, the Ki (D3 receptor) was 0.0057 µM and the Ki (5-HT2A receptor; [1]) was 0.0358 µM.

`O=C(N[C@H]1CC[C@H](CCN2CCC(c3cccc4c3OCO4)CC2)CC1)C1CC1(F)F` (stereo partly drawn) [Example 26, Trans-2,2-Difluoro-cyclopropanecarboxylic acid {4-[2-(4-benzo[1,3]dioxol-4-yl-piperidin-1-yl)-ethyl]-cyclohexyl}-amide] gave a Ki (D2 receptor) of 0.194 µM, a Ki (D3 receptor) of 0.00772 µM and a Ki (5-HT2A receptor; [1]) of 0.0267 µM.

In the case of `COC(C)CC(=O)N[C@H]1CC[C@H](CCN2CCC(c3cccc4c3OCO4)CC2)CC1` (stereo partly drawn) [Example 27, Trans-N-{4-[2-(4-Benzo[1,3]dioxol-4-yl-piperidin-1-yl)-ethyl]-cyclohexyl}-3-methoxy-butyramide], the Ki (D2 receptor) is reported as 0.402 µM, the Ki (D3 receptor) is reported as 0.00752 µM and the Ki (5-HT2A receptor) is reported as 0.0336 µM.

For `O=C(N[C@H]1CC[C@H](CCN2CCC(c3cccc4c3OCO4)CC2)CC1)C1CC(Cl)C1` (stereo partly drawn) [Example 28, 3-Chloro-cyclobutanecarboxylic acid trans-{4-[2-(4-benzo[1,3]dioxol-4-yl-piperidin-1-yl)-ethyl]-cyclohexyl}-amide], the Ki (D2 receptor) was 0.305 µM, the Ki (D3 receptor) was 0.00636 µM and the Ki (5-HT2A receptor) was 0.0186 µM.

`O=C(CC1COC1)N[C@H]1CC[C@H](CCN2CCC(c3cccc4c3OCO4)CC2)CC1` [Example 29, Trans-N-{4-[2-(4-Benzo[1,3]dioxol-4-yl-piperidin-1-yl)-ethyl]cyclohexyl}-2-oxetan-3-yl-acetamide] gave a Ki (D2 receptor) of 0.258 µM, a Ki (D3 receptor) of 0.00519 µM and a Ki (5-HT2A receptor; [1]) of 0.0219 µM.

`CO[C@@H]1CC[C@@H](CC(=O)N[C@H]2CC[C@H](CCN3CCC(c4cccc5c4OCO5)CC3)CC2)C1` [Example 30, Trans-N-{4-[2-(4-Benzo[1,3]dioxol-4-yl-piperidin-1-yl)-ethyl]-cyclohexyl}-2-((1R,3R)-3-methoxy-cyclopentyl)-acetamide] gave a Ki (D2 receptor) of 0.331 µM, a Ki (D3 receptor) of 0.00529 µM and a Ki (5-HT2A receptor; [1]) of 0.0274 µM.

For `O=C(CC1(O)CCOCC1)N[C@H]1CC[C@H](CCN2CCC(c3cccc4c3OCO4)CC2)CC1` [Example 31, Trans-N-{4-[2-(4-Benzo[1,3]dioxol-4-yl-piperidin-1-yl)-ethyl]-cyclohexyl}-2-(4-hydroxy-tetrahydro-pyran-4-yl)-acetamide], the Ki (D2 receptor) was 0.306 µM, the Ki (D3 receptor) was 0.00715 µM and the Ki (5-HT2A receptor; [1]) was 0.0249 µM.

Work on `CC(C)(O)C(=O)N[C@H]1CC[C@H](CCN2CCC(c3cccc4c3OCO4)CC2)CC1` [Example 32, Trans-N-{4-[2-(4-Benzo[1,3]dioxol-4-yl-piperidin-1-yl)-ethyl]-cyclohexyl}-2-hydroxy-2-methyl-propionamide] yielded a Ki (D2 receptor) of 0.407 µM, a Ki (D3 receptor) of 0.025 µM and a Ki (5-HT2A receptor) of 0.00477 µM.

Compound `CO[C@@H](C)C(=O)N[C@H]1CC[C@H](CCN2CCC(c3cccc4c3OCO4)CC2)CC1` [Example 33, Trans-(S)—N-{4-[2-(4-Benzo[1,3]dioxol-4-yl-piperidin-1-yl)-ethyl]-cyclohexyl}-2-methoxy-propionamide] has a Ki (D2 receptor) of 0.464 µM, a Ki (D3 receptor) of 0.0503 µM and a Ki (5-HT2A receptor; [1]) of 0.0291 µM.

Compound `CO[C@H](C)C(=O)N[C@H]1CC[C@H](CCN2CCC(c3cccc4c3OCO4)CC2)CC1` [Example 34, Trans-(R)—N-{4-[2-(4-Benzo[1,3]dioxol-4-yl-piperidin-1-yl)-ethyl]-cyclohexyl}-2-methoxy-propionamide] has a Ki (D2 receptor) of 0.504 µM, a Ki (D3 receptor) of 0.0278 µM and a Ki (5-HT2A receptor; [1]) of 0.00957 µM.

`CC(C)(O)CC(=O)N[C@H]1CC[C@H](CCN2CCC(c3cccc4c3OCO4)CC2)CC1` [Example 35, Trans-N-{4-[2-(4-Benzo[1,3]dioxol-4-yl-piperidin-1-yl)-ethyl]-cyclohexyl}-3-hydroxy-3-methyl-butyramide] showed a Ki (D2 receptor) of 0.282 µM, a Ki (D3 receptor) of 0.00592 µM and a Ki (5-HT2A receptor; [1]) of 0.0261 µM.

In the case of `O=C(N[C@H]1CC[C@H](CCN2CCC(c3cccc4c3OCO4)CC2)CC1)c1ccc(Cl)cc1` [Example 36, Trans-N-{4-[2-(4-Benzo[1,3]dioxol-4-yl-piperidin-1-yl)-ethyl]-cyclohexyl}-4-chloro-benzamide], the Ki (D2 receptor) is reported as 0.147 µM, the Ki (D3 receptor) is reported as 0.00636 µM and the Ki (5-HT2A receptor; [1]) is reported as 0.0218 µM.

Work on `O=C(N[C@H]1CC[C@H](CCN2CCC(c3cccc4c3OCO4)CC2)CC1)c1ccc(F)cc1` [Example 37, Trans-N-{4-[2-(4-Benzo[1,3]dioxol-4-yl-piperidin-1-yl)-ethyl]-cyclohexyl}-4-fluoro-benzamide] yielded a Ki (D2 receptor) of 0.234 µM, a Ki (D3 receptor) of 0.00489 µM and a Ki (5-HT2A receptor) of 0.0131 µM.

Work on `O=C(N[C@H]1CC[C@H](CCN2CCC(c3cccc4c3OCO4)CC2)CC1)[C@H](O)C(F)(F)F` [Example 38, Trans-(S)—N-{4-[2-(4-Benzo[1,3]dioxol-4-yl-piperidin-1-yl)-ethyl]-cyclohexyl}-3,3,3-trifluoro-2-hydroxy-propionamide] yielded a Ki (D2 receptor) of 0.209 µM, a Ki (D3 receptor) of 0.00763 µM and a Ki (5-HT2A receptor) of 0.0208 µM.

`O=C(N[C@H]1CC[C@H](CCN2CCC(c3cccc4c3OCO4)CC2)CC1)[C@@H](O)C(F)(F)F` [Example 39, Trans-(R)—N-{4-[2-(4-Benzo[1,3]dioxol-4-yl-piperidin-1-yl)-ethyl]-cyclohexyl}-3,3,3-trifluoro-2-hydroxy-propionamide] was tested, and the Ki (D2 receptor) was 0.284 µM, the Ki (D3 receptor) was 0.0199 µM and the Ki (5-HT2A receptor) was 0.0194 µM.

`O=C(C[C@@H]1CCCCO1)N[C@H]1CC[C@H](CCN2CCC(c3cccc4c3OCO4)CC2)CC1` [Example 40, Trans-N-{4-[2-(4-Benzo[1,3]dioxol-4-yl-piperidin-1-yl)-ethyl]-cyclohexyl}-2-(S)-tetrahydro-pyran-2-yl-acetamide] gave a Ki (D2 receptor) of 0.422 µM, a Ki (D3 receptor) of 0.009 µM and a Ki (5-HT2A receptor) of 0.0279 µM.

Compound `O=C(C[C@H]1CCCCO1)N[C@H]1CC[C@H](CCN2CCC(c3cccc4c3OCO4)CC2)CC1` [Example 41, Trans-N-{4-[2-(4-Benzo[1,3]dioxol-4-yl-piperidin-1-yl)-ethyl]-cyclohexyl}-2-(R)-tetrahydro-pyran-2-yl-acetamide] has a Ki (D2 receptor) of 0.491 µM, a Ki (D3 receptor) of 0.00765 µM and a Ki (5-HT2A receptor) of 0.0126 µM.

Compound `O=C(C[C@@H]1CCCOC1)N[C@H]1CC[C@H](CCN2CCC(c3cccc4c3OCO4)CC2)CC1` [Example 42, Trans-N-{4-[2-(4-Benzo[1,3]dioxol-4-yl-piperidin-1-yl)-ethyl]-cyclohexyl}-2-(S)-tetrahydro-pyran-3-yl-acetamide] has a Ki (D2 receptor) of 0.322 µM, a Ki (D3 receptor) of 0.0117 µM and a Ki (5-HT2A receptor; [1]) of 0.0201 µM.

Compound `O=C(C[C@H]1CCCOC1)N[C@H]1CC[C@H](CCN2CCC(c3cccc4c3OCO4)CC2)CC1` [Example 43, Trans-N-{4-[2-(4-Benzo[1,3]dioxol-4-yl-piperidin-1-yl)-ethyl]-cyclohexyl}-2-(R)-tetrahydro-pyran-3-yl-acetamide] has a Ki (D2 receptor) of 0.408 µM, a Ki (D3 receptor) of 0.0078 µM and a Ki (5-HT2A receptor; [1]) of 0.0198 µM.

Compound `CCOCCC(=O)N[C@H]1CC[C@H](CCN2CCC(c3cccc4c3OCO4)CC2)CC1` [Example 44, Trans-N-{4-[2-(4-Benzo[1,3]dioxol-4-yl-piperidin-1-yl)-ethyl]-cyclohexyl}-3-ethoxy-propionamide] has a Ki (D2 receptor) of 0.393 µM, a Ki (D3 receptor) of 0.00732 µM and a Ki (5-HT2A receptor; [1]) of 0.055 µM.

`O=C(CC1(O)CCC1)N[C@H]1CC[C@H](CCN2CCC(c3cccc4c3OCO4)CC2)CC1` [Example 45, Trans-N-{4-[2-(4-Benzo[1,3]dioxol-4-yl-piperidin-1-yl)-ethyl]-cyclohexyl}-2-(1-hydroxy-cyclobutyl)-acetamide] showed a Ki (D2 receptor) of 0.262 µM, a Ki (D3 receptor) of 0.00641 µM and a Ki (5-HT2A receptor) of 0.0268 µM.

`O=C(N[C@H]1CC[C@H](CCN2CCC(c3cccc4c3OCO4)CC2)CC1)C1CCCO1` (stereo partly drawn) [Example 46, Tetrahydro-furan-2-carboxylic acid-trans-{4-[2-(4-benzo[1,3]dioxol-4-yl-piperidin-1-yl)-ethyl]-cyclohexyl}-amide] gave a Ki (D2 receptor) of 0.464 µM, a Ki (D3 receptor) of 0.0476 µM and a Ki (5-HT2A receptor; [1]) of 0.0144 µM.

`O=C(N[C@H]1CC[C@H](CCN2CCC(c3cccc4c3OCO4)CC2)CC1)C1CCOC1` (stereo partly drawn) [Example 47, Tetrahydro-furan-3-carboxylic acid-trans-{4-[2-(4-benzo[1,3]dioxol-4-yl-piperidin-1-yl)-ethyl]-cyclohexyl}-amide] showed a Ki (D2 receptor) of 0.165 µM, a Ki (D3 receptor) of 0.00761 µM and a Ki (5-HT2A receptor; [1]) of 0.0241 µM.

`O=C(N[C@H]1CC[C@H](CCN2CCC(c3cccc4c3OCO4)CC2)CC1)C1CCOCC1` [Example 48, Tetrahydro-pyran-4-carboxylic acid-trans-{4-[2-(4-benzo[1,3]dioxol-4-yl-piperidin-1-yl)-ethyl]-cyclohexyl}-amide] was tested, and the Ki (D2 receptor) was 0.184 µM, the Ki (D3 receptor) was 0.0138 µM and the Ki (5-HT2A receptor; [1]) was 0.00952 µM.

`O=C(N[C@H]1CC[C@H](CCN2CCC(c3cccc4c3OCO4)CC2)CC1)C1(O)CC1` [Example 49, 1-Hydroxy-cyclopropanecarboxylic acid-trans-{4-[2-(4-benzo[1,3]dioxol-4-yl-piperidin-1-yl)-ethyl]-cyclohexyl}-amide] was tested, and the Ki (D2 receptor) was 0.245 µM, the Ki (D3 receptor) was 0.00609 µM and the Ki (5-HT2A receptor) was 0.00817 µM.

`O=C(N[C@H]1CC[C@H](CCN2CCC(c3cccc4c3OCO4)CC2)CC1)C1(C(F)(F)F)CC1` [Example 50, Trifluoromethyl-cyclopropanecarboxylic acid-trans-N-{4-[2-(4-benzo[1,3]dioxol-4-yl-piperidin-1-yl)-ethyl]-cyclohexyl}-amide] gave a Ki (D2 receptor) of 0.246 µM, a Ki (D3 receptor) of 0.0409 µM and a Ki (5-HT2A receptor; [1]) of 0.019 µM.
